Measurements as given in ChEMBL document CHEMBL1122981, “Specific inhibition of benzodiazepine receptor binding by some N-(indol-3-ylglyoxylyl)amino acid derivatives” (J Med Chem, 1985).

The molecules below were run against GABA-A receptor; anion channel (Bos taurus) (UniProt P10063+P08220+P20237+P08219+P10064+P22300) (assay: Inhibition of specific [3H]flunitrazepam binding to benzodiazepine receptor at 250 uM).
Type: protein-complex assay
Molecule CC(NC(=O)C(=O)c1c[nH]c2ccc([N+](=O)[O-])cc12)C(=O)O (stereo not drawn) has an inhibition of 94%.
CC(C)C(NC(=O)C(=O)c1c[nH]c2ccc(Br)cc12)C(=O)O (stereo not drawn) showed an inhibition of 72%.
Molecule CCOC(=O)C(C)NC(=O)C(=O)c1c[nH]c2ccc([N+](=O)[O-])cc12 (stereo not drawn) has an inhibition of 100%.
Work on COc1ccc2[nH]cc(C(=O)C(=O)NC(C(=O)O)C(C)C)c2c1 (stereo not drawn) yielded an inhibition of 12%.
COC(=O)C(Cc1ccc(O)cc1)NC(=O)C(=O)c1c[nH]c2ccc([N+](=O)[O-])cc12 (stereo not drawn) gave an inhibition of 100%.
CCOC(=O)C(Cc1c[nH]c2ccccc12)NC(=O)C(=O)c1c[nH]c2ccccc12 (stereo not drawn) was tested, and the inhibition was 70%.
CCOC(=O)CNC(=O)C(=O)c1c[nH]c2ccc(Br)cc12 was tested, and the inhibition was 100%.
CC(NC(=O)C(=O)c1c[nH]c2ccccc12)C(=O)O (stereo not drawn) gave an inhibition of 72%.
O=C(O)CNC(=O)C(=O)c1c[nH]c2ccc(Cl)cc12 was tested, and the inhibition was 82%.
CC(C)C(NC(=O)C(=O)c1c[nH]c2ccc(Cl)cc12)C(=O)O (stereo not drawn) gave an inhibition of 68%.
For CCOC(=O)C(Cc1ccccc1)NC(=O)C(=O)c1c[nH]c2ccc(OC)cc12 (stereo not drawn), the inhibition was 60%.
Work on CCOC(=O)C(Cc1ccc(O)cc1)NC(=O)C(=O)c1c[nH]c2ccc(Br)cc12 (stereo not drawn) yielded an inhibition of 68%.
In the case of O=C(NC(Cc1ccc(O)cc1)C(=O)O)C(=O)c1c[nH]c2ccc([N+](=O)[O-])cc12 (stereo not drawn), the inhibition is reported as 81%.
CCOC(=O)C(C)NC(=O)C(=O)c1c[nH]c2ccc(Br)cc12 (stereo not drawn) was tested, and the inhibition was 100%.
For CCOC(=O)CNC(=O)C(=O)c1c[nH]c2ccc(Cl)cc12, the inhibition was 100%.
With CCOC(=O)C(NC(=O)C(=O)c1c[nH]c2ccc(Cl)cc12)C(C)C (stereo not drawn) the inhibition was 62%.
With CCOC(=O)C(Cc1c[nH]c2ccccc12)NC(=O)C(=O)c1c[nH]c2ccc(Br)cc12 (stereo not drawn) the inhibition was 100%.
Work on O=C(NC(Cc1c[nH]c2ccccc12)C(=O)O)C(=O)c1c[nH]c2ccc(Cl)cc12 (stereo not drawn) yielded an inhibition of 61%.
With CCOC(=O)C(C)NC(=O)C(=O)c1c[nH]c2ccccc12 (stereo not drawn) the inhibition was 80%.
With O=C(NC(Cc1ccc(O)cc1)C(=O)O)C(=O)c1c[nH]c2ccccc12 (stereo not drawn) the inhibition was 27%.
CCOC(=O)C(Cc1c[nH]c2ccccc12)NC(=O)C(=O)c1c[nH]c2ccc([N+](=O)[O-])cc12 (stereo not drawn) gave an inhibition of 59%.
CCOC(=O)C(NC(=O)C(=O)c1c[nH]c2ccc(OC)cc12)C(C)C (stereo not drawn) gave an inhibition of 66%.
With O=C(NC(Cc1c[nH]c2ccccc12)C(=O)O)C(=O)c1c[nH]c2ccc(Br)cc12 (stereo not drawn) the inhibition was 66%.
With O=C(NC(Cc1c[nH]c2cc([N+](=O)[O-])ccc12)C(=O)O)C(=O)c1c[nH]c2ccccc12 (stereo not drawn) the inhibition was 31%.
In the case of O=C(O)CNC(=O)C(=O)c1c[nH]c2ccccc12, the inhibition is reported as 20%.
CCOC(=O)C(Cc1c[nH]c2cc([N+](=O)[O-])ccc12)NC(=O)C(=O)c1c[nH]c2ccccc12 (stereo not drawn) showed an inhibition of 48%.
In the case of CC(C)C(NC(=O)C(=O)c1c[nH]c2ccc([N+](=O)[O-])cc12)C(=O)O (stereo not drawn), the inhibition is reported as 83%.
For CCOC(=O)C(Cc1ccc(O)cc1)NC(=O)C(=O)c1c[nH]c2ccc(Cl)cc12 (stereo not drawn), the inhibition was 89%.
For CCOC(=O)C(NC(=O)C(=O)c1c[nH]c2ccc(Br)cc12)C(C)C (stereo not drawn), the inhibition was 88%.
CCOC(=O)C(C)NC(=O)C(=O)c1c[nH]c2ccc(Cl)cc12 (stereo not drawn) showed an inhibition of 100%.
In the case of O=C(NC(Cc1ccc(O)cc1)C(=O)O)C(=O)c1c[nH]c2ccc(Cl)cc12 (stereo not drawn), the inhibition is reported as 67%.
Molecule CCOC(=O)C(Cc1ccccc1)NC(=O)C(=O)c1c[nH]c2ccc(Br)cc12 (stereo not drawn) has an inhibition of 65%.
Molecule CC(NC(=O)C(=O)c1c[nH]c2ccc(Cl)cc12)C(=O)O (stereo not drawn) has an inhibition of 93%.
CCOC(=O)C(Cc1c[nH]c2ccccc12)NC(=O)C(=O)c1c[nH]c2ccc(Cl)cc12 (stereo not drawn) showed an inhibition of 55%.
With O=C(NC(Cc1ccc(O)cc1)C(=O)O)C(=O)c1c[nH]c2ccc(Br)cc12 (stereo not drawn) the inhibition was 37%.
Work on COc1ccc2[nH]cc(C(=O)C(=O)NC(Cc3ccccc3)C(=O)O)c2c1 (stereo not drawn) yielded an inhibition of 38%.
Molecule COC(=O)C(Cc1ccc(O)cc1)NC(=O)C(=O)c1c[nH]c2ccccc12 (stereo not drawn) has an inhibition of 50%.
In the case of CCOC(=O)C(NC(=O)C(=O)c1c[nH]c2ccccc12)C(C)C (stereo not drawn), the inhibition is reported as 77%.
For O=C(NC(Cc1ccccc1)C(=O)O)C(=O)c1c[nH]c2ccc(Br)cc12 (stereo not drawn), the inhibition was 62%.
Molecule O=C(NC(Cc1c[nH]c2ccccc12)C(=O)O)C(=O)c1c[nH]c2ccccc12 (stereo not drawn) has an inhibition of 11%.
For CCOC(=O)CNC(=O)C(=O)c1c[nH]c2ccccc12, the inhibition was 84%.
Molecule CC(C)C(NC(=O)C(=O)c1c[nH]c2ccccc12)C(=O)O (stereo not drawn) has an inhibition of 28%.

Each molecule was assayed against GABA-A receptor; anion channel (assay: Inhibition of [3H]flunitrazepam binding to GABA-A central Benzodiazepine receptor of bovine brain membranes).
Type: cell membranes, Bos taurus
CC(NC(=O)C(=O)c1c[nH]c2ccc([N+](=O)[O-])cc12)C(=O)O (stereo not drawn) showed an IC50 of 6.2 µM.
Work on CCOC(=O)C(C)NC(=O)C(=O)c1c[nH]c2ccc([N+](=O)[O-])cc12 (stereo not drawn) yielded an IC50 of 0.2 µM.
For COC(=O)C(Cc1ccc(O)cc1)NC(=O)C(=O)c1c[nH]c2ccc([N+](=O)[O-])cc12 (stereo not drawn), the IC50 was 20 µM.
For CCOC(=O)CNC(=O)C(=O)c1c[nH]c2ccc(Br)cc12, the IC50 was 2 µM.
With O=C(O)CNC(=O)C(=O)c1c[nH]c2ccc(Cl)cc12 the IC50 was 38 µM.
With O=C(NC(Cc1ccc(O)cc1)C(=O)O)C(=O)c1c[nH]c2ccc([N+](=O)[O-])cc12 (stereo not drawn) the IC50 was 75 µM.
CCOC(=O)C(C)NC(=O)C(=O)c1c[nH]c2ccc(Br)cc12 (stereo not drawn) was tested, and the IC50 was 4.8 µM.
CCOC(=O)CNC(=O)C(=O)c1c[nH]c2ccc(Cl)cc12 was tested, and the IC50 was 5.4 µM.
Work on CNC1=Nc2ccc(Cl)cc2C(c2ccccc2)=[N+]([O-])C1 [CHLORDIAZEPOXIDE] yielded an IC50 of 1.1 µM.
In the case of CCOC(=O)C(Cc1c[nH]c2ccccc12)NC(=O)C(=O)c1c[nH]c2ccc(Br)cc12 (stereo not drawn), the IC50 is reported as 22 µM.
With O=C1CN=C(c2ccccc2)c2cc([N+](=O)[O-])ccc2N1 [NITRAZEPAM] the IC50 was 0.038 µM.
Molecule CC(C)C(NC(=O)C(=O)c1c[nH]c2ccc([N+](=O)[O-])cc12)C(=O)O (stereo not drawn) has an IC50 of 60 µM.
In the case of CCOC(=O)C(Cc1ccc(O)cc1)NC(=O)C(=O)c1c[nH]c2ccc(Cl)cc12 (stereo not drawn), the IC50 is reported as 80 µM.
Work on CN1C(=O)CN=C(c2ccccc2)c2cc(Cl)ccc21 [DIAZEPAM] yielded an IC50 of 0.041 µM.
Work on CCOC(=O)C(C)NC(=O)C(=O)c1c[nH]c2ccc(Cl)cc12 (stereo not drawn) yielded an IC50 of 0.5 µM.
CC(NC(=O)C(=O)c1c[nH]c2ccc(Cl)cc12)C(=O)O (stereo not drawn) showed an IC50 of 22 µM.
